The nature of the data set: Single dose oral pharmacokinetic study. The format is in vivo. The conditions noted are these: mouse, mice, 30 mg/kg, plasma; for AUC(0-t): read-out: Mice oral PK @30 mg/kg AUC 0-t; for Cmax: read-out: Mice oral PK @30 mg/kg Cmax. On the procedure:
The test item was administered through oral route to animals (rat/mice) at 30 mg/kg dose in a suitable vehicle at 10 ml/kg dose volume. Blood samples (˜50 uL at each time point) were collected from retro-orbital plexus using K3 EDTA as anticoagulant in eppend; orf tubes at defined time intervals under light ether anesthesia. The samples were centrifuged at 3500×g to separate plasma and stored at −80° C. until analysis.
Sample analysis: Test samples were analyzed using LC-MS-MS after developing fit-for-purpose method for each of test compound.

Consider `C=C(C)[C@@H]1CC[C@]2(C(=O)N3CCC[C@H]3c3ncc(-c4ccc(C(F)(F)F)cc4)[nH]3)CC[C@]3(C)[C@H](CC[C@@H]4[C@@]5(C)CC[C@H](OC(=O)[C@H]6C[C@@H](C(=O)O)C6(C)C)C(C)(C)[C@@H]5CC[C@]43C)[C@@H]12` [Compound 6, (1R,3S)-2,2-dimethyl-3-((((1R,3aS,5aR,5bR,7aR,9S,11aR,11bR,13aR,13bR)-5a,5b,8,8,11a-pentamethyl-1-(prop-1-en-2-yl)-3a-((S)-2-(5-(4-(trifluoromethyl)phenyl)-1H-imidazol-2-yl)pyrrolidine-1-carbonyl)icosahydro-1H-cyclopenta[a]chrysen-9-yl)oxy)carbonyl)cyclobutane-1-carboxylic acid], for which the AUC(0-t) was 93.4 µg·h/mL and the Cmax was determined as 3100 ng/mL.

Take `C=C(C)[C@@H]1CC[C@]2(C(=O)N3CCC[C@H]3c3ncc(-c4ccc(Cl)cc4)[nH]3)CC[C@]3(C)[C@H](CC[C@@H]4[C@@]5(C)CC[C@H](OC(=O)[C@H]6C[C@@H](C(=O)O)C6(C)C)C(C)(C)[C@@H]5CC[C@]43C)[C@@H]12` [Compound 19, (1R,3S)-3-((((1R,3aS,5aR,5bR,7aR,9S,11aR,11bR,13aR,13bR)-3a-((S)-2-(5-(4-chlorophenyl)-1H-imidazol-2-yl)pyrrolidine-1-carbonyl)-5a,5b,8,8,11a-pentamethyl-1-(prop-1-en-2-yl)icosahydro-1H-cyclopenta[a]chrysen-9-yl)oxy)carbonyl)-2,2-dimethylcyclobutane-1-carboxylic acid]: the AUC(0-t) came out at 183 µg·h/mL and the Cmax turned out to be 7500 ng/mL.

Take `C=C(C)[C@@H]1CC[C@]2(C(=O)N3C4CCC3CC(n3c(C)nnc3C(C)C)C4)CC[C@]3(C)[C@H](CC[C@@H]4[C@@]5(C)CC[C@H](OC(=O)[C@H]6C[C@@H](C(=O)O)C6(C)C)C(C)(C)[C@@H]5CC[C@]43C)[C@@H]12` (stereo partly drawn) [Compound 38, (1R,3S)-3-((((1R,3aS,5aR,5bR,7aR,9S,11aR,11bR,13aR,13bR)-3a-((1R,3R,5S)-3-(3-isopropyl-5-methyl-4H-1,2,4-triazol-4-yl)-8-azabicyclo[3.2.1]octane-8-carbonyl)-5a,5b,8,8,11a-pentamethyl-1-(prop-1-en-2-yl)icosahydro-1H-cyclopenta[a]chrysen-9-yl)oxy)carbonyl)-2,2-dimethylcyclobutane-1-carboxylic acid]: the AUC(0-t) was determined as 127 µg·h/mL and the Cmax turned out to be 7350 ng/mL.

Take `C=C(C)[C@@H]1CC[C@]2(C(=O)N3CCC[C@H]3c3ncc(-c4ccccn4)[nH]3)CC[C@]3(C)[C@H](CC[C@@H]4[C@@]5(C)CC[C@H](OC(=O)CC(C)(C)C(=O)O)C(C)(C)[C@@H]5CC[C@]43C)[C@@H]12` [Compound 39, 2,2-dimethyl-4-oxo-4-(((1R,3aS,5aR,5bR,7aR,9S,11aR,11bR,13aR,13bR)-5a,5b,8,8,11a-pentamethyl-1-(prop-1-en-2-yl)-3a-((S)-2-(5-(pyridin-2-yl)-1H-imidazol-2-yl)pyrrolidine-1-carbonyl)icosahydro-1H-cyclopenta[a]chrysen-9-yl)oxy)butanoic acid]: the AUC(0-t) stood at 80.9 µg·h/mL and the Cmax worked out at 5690 ng/mL.

For `C=C(C)[C@@H]1CC[C@]2(C(=O)N3CCC[C@H]3c3ncc(-c4ccc(F)cc4)[nH]3)CC[C@]3(C)[C@H](CC[C@@H]4[C@@]5(C)CC[C@H](OC(=O)CC(C)(C)CC(=O)O)C(C)(C)[C@@H]5CC[C@]43C)[C@@H]12` [Compound 41, 5-(((1R,3aS,5aR,5bR,7aR,9S,11aR,11bR,13aR,13bR)-3a-((S)-2-(5-(4-fluorophenyl)-1H-imidazol-2-yl)pyrrolidine-1-carbonyl)-5a,5b,8,8,11a-pentamethyl-1-(prop-1-en-2-yl)icosahydro-1H-cyclopenta[a]chrysen-9-yl)oxy)-3,3-dimethyl-5-oxopentanoic acid], the AUC(0-t) was 258 µg·h/mL and the Cmax is 14500 ng/mL.

On to `C=C(C)[C@@H]1CC[C@]2(C(=O)N3C4CCC3CC(n3c(C)nnc3C(C)C)C4)CC[C@]3(C)[C@H](CC[C@@H]4[C@@]5(C)CC[C@H](OC(=O)CC(C)(C)C(=O)O)C(C)(C)[C@@H]5CC[C@]43C)[C@@H]12` (stereo partly drawn) [Compound 49, 4-(((1R,3aS,5aR,5bR,7aR,9S,11aR,11bR,13aR,13bR)-3a-((1R,3R,5S)-3-(3-isopropyl-5-methyl-4H-1,2,4-triazol-4-yl)-8-azabicyclo[3.2.1]octane-8-carbonyl)-5a,5b,8,8,11a-pentamethyl-1-(prop-1-en-2-yl)icosahydro-1H-cyclopenta[a]chrysen-9-yl)oxy)-2,2-dimethyl-4-oxobutanoic acid], for which the AUC(0-t) was determined as 111 µg·h/mL and the Cmax turned out to be 10800 ng/mL.

On to `COCCOc1ccc(-c2cnc([C@@H]3CCCN3C(=O)[C@]34CC[C@@H](C5(C)CC5)[C@@H]3[C@H]3CC[C@@H]5[C@@]6(C)CC[C@H](OC(=O)[C@H]7C[C@@H](C(=O)O)C7(C)C)C(C)(C)[C@@H]6CC[C@@]5(C)[C@]3(C)CC4)[nH]2)cc1` [Compound 52, (1R,3S)-3-((((1R,3aS,5aR,5bR,7aR,9S,11aR,11bR,13aR,13bR)-3a-((S)-2-(5-(4-(2-methoxyethoxy)phenyl)-1H-imidazol-2-yl)pyrrolidine-1-carbonyl)-5a,5b,8,8,11a-pentamethyl-1-(1-methylcyclopropyl)icosahydro-1H-cyclopenta[a]chrysen-9-yl)oxy)carbonyl)-2,2-dimethylcyclobutane-1-carboxylic acid], for which the AUC(0-t) was found to be 273 µg·h/mL and the Cmax came to 9610 ng/mL.

Take `CC1([C@@H]2CC[C@]3(C(=O)N4CCC[C@H]4c4ncc(-c5ccc[n+]([O-])c5)[nH]4)CC[C@]4(C)[C@H](CC[C@@H]5[C@@]6(C)CC[C@H](OC(=O)[C@H]7C[C@@H](C(=O)O)C7(C)C)C(C)(C)[C@@H]6CC[C@]54C)[C@@H]23)CC1` [Compound 53, 3-(2-((S)-1-((1R,3aS,5aR,5bR,7aR,9S,11aR,11bR,13aR,13bR)-9-(((1S,3R)-3-carboxy-2,2-dimethylcyclobutane-1-carbonyl)oxy)-5a,5b,8,8,11a-pentamethyl-1-(1-methylcyclopropyl)icosahydro-1H-cyclopenta[a]chrysene-3a-carbonyl)pyrrolidin-2-yl)-1H-imidazol-5-yl)pyridine-1-oxide]: the AUC(0-t) was found to be 471 µg·h/mL and the Cmax was 14700 ng/mL.

Take `Cc1nnc(C(C)C)n1C1CCN(C(=O)[C@]23CC[C@@H](C4(C)CC4)[C@@H]2[C@H]2CC[C@@H]4[C@@]5(C)CC[C@H](OC(=O)[C@H]6C[C@@H](C(=O)O)C6(C)C)C(C)(C)[C@@H]5CC[C@@]4(C)[C@]2(C)CC3)CC1` [Compound 58, (1R,3S)-3-((((1R,3aS,5aR,5bR,7aR,9S,11aR,11bR,13aR,13bR)-3a-(4-(3-isopropyl-5-methyl-4H-1,2,4-triazol-4-yl)piperidine-1-carbonyl)-5a,5b,8,8,11a-pentamethyl-1-(1-methylcyclopropyl)icosahydro-1H-cyclopenta[a]chrysen-9-yl)oxy)carbonyl)-2,2-dimethylcyclobutane-1-carboxylic acid]: the AUC(0-t) is 104 µg·h/mL and the Cmax came out at 3050 ng/mL.

For `Cc1nnc(C(C)C)n1C1CC2CCC(C1)N2C(=O)[C@]12CC[C@@H](C3(C)CC3)[C@@H]1[C@H]1CC[C@@H]3[C@@]4(C)CC[C@H](OC(=O)[C@H]5C[C@@H](C(=O)O)C5(C)C)C(C)(C)[C@@H]4CC[C@@]3(C)[C@]1(C)CC2` (stereo partly drawn) [Compound 60, (1R,3S)-3-((((1R,3aS,5aR,5bR,7aR,9S,11aR,11bR,13aR,13bR)-3a-((1R,3R,5S)-3-(3-isopropyl-5-methyl-4H-1,2,4-triazol-4-yl)-8-azabicyclo[3.2.1]octane-8-carbonyl)-5a,5b,8,8,11a-pentamethyl-1-(1-methylcyclopropyl)icosahydro-1H-cyclopenta[a]chrysen-9-yl)oxy)carbonyl)-2,2-dimethylcyclobutane-1-carboxylic acid], the AUC(0-t) came out at 295 µg·h/mL and the Cmax was 6520 ng/mL.

In the case of `Cc1nnc(C(C)C)n1C1CCN(C(=O)[C@]23CC[C@@H](C4(C)CC4)[C@@H]2[C@H]2CC[C@@H]4[C@@]5(C)CC[C@H](OC(=O)CC(C)(C)C(=O)O)C(C)(C)[C@@H]5CC[C@@]4(C)[C@]2(C)CC3)CC1` [Compound 69, 4-(((1R,3aS,5aR,5 bR,7aR,9S,11aR,11bR,13aR,13bR)-3a-(4-(3-isopropyl-5-methyl-4H-1,2,4-triazol-4-yl)piperidine-1-carbonyl)-5a,5b,8,8,11a-pentamethyl-1-(1-methylcyclopropyl)icosahydro-1H-cyclopenta[a]chrysen-9-yl)oxy)-2,2-dimethyl-4-oxobutanoic acid], the AUC(0-t) came out at 238 µg·h/mL and the Cmax was found to be 16700 ng/mL.

For the compound `Cc1nnc(C(C)C)n1C1CC2CCC(C1)N2C(=O)[C@]12CC[C@@H](C3(C)CC3)[C@@H]1[C@H]1CC[C@@H]3[C@@]4(C)CC[C@H](OC(=O)CC(C)(C)C(=O)O)C(C)(C)[C@@H]4CC[C@@]3(C)[C@]1(C)CC2` (stereo partly drawn) [Compound 71, 4-(((1R,3aS,5aR,5bR,7aR,9S,11aR,11bR,13aR,13bR)-3a-((R,3R,5S)-3-(3-isopropyl-5-methyl-4H-1,2,4-triazol-4-yl)-8-azabicyclo[3.2.1]octane-8-carbonyl)-5a,5b,8,8,11a-pentamethyl-1-(1-methylcyclopropyl)icosahydro-1H-cyclopenta[a]chrysen-9-yl)oxy)-2,2-dimethyl-4-oxobutanoic acid], the AUC(0-t) came out at 298 µg·h/mL and the Cmax came out at 15800 ng/mL.

(Values after patent US20170129916A1, “NOVEL BETULINIC PROLINE IMIDAZOLE DERIVATIVES AS HIV INHIBITORS” (HETERO RESEARCH FOUNDATION, priority 2014, published 2017).)
